Measurements taken from patent US7973024B2, “24-sulfoximine vitamin D3 compounds” (Cyctochroma Inc., priority 2002, dated 2011).

Columns and labels:
[1] = target: T1, CYP24 (Homo sapiens, UniProt Q07973); experiment: In vitro test of ability to inhibit specifically CYP24 (standard protocol); assay type: cell-based; settings: ketoconazole as control standard
T1 construct: expressed in transfected cells
T1 sequence (Q07973 36-514): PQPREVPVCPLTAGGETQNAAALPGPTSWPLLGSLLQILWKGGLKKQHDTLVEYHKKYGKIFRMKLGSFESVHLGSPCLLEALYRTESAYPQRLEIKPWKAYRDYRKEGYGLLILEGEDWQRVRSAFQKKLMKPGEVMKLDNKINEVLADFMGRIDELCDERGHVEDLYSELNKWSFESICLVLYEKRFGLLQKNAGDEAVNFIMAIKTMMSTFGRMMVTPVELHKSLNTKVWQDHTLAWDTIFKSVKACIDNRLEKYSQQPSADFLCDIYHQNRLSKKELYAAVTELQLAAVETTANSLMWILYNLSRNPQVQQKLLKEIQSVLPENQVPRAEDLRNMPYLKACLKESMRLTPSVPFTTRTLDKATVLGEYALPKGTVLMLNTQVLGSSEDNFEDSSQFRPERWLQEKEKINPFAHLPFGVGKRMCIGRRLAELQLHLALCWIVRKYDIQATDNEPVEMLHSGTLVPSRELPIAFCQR

[2] = target: T1, CYP24; experiment: CYP24 enzyme assay (stable cell line V79-CYP24 cells); assay type: cell-based; settings: [3H-1β]-1α,25(OH)2D3 20 nM, 2 hours
Protocol: 1. Preparation of Cell Suspension • On the day of the assay, washed the monolayer of V79-CYP24 cells once with 1×PBS buffer and then trypsinize for 5 min at room temperature (approx. 22° C.). Added 1×PBS. Collected cells into tube, centrifuged cells (500×g, 5 min) and resuspended in DMEM+1% BSA media.
2. Cell Plating • Added 150 μl of cell suspension to appropriately labelled wells of a 48-well plate. Incubated plate for 30 minutes at 37° C. in a humidified atmosphere containing 5% CO2 for adherence of cells to wells.
3. Compound Addition • Added 25 μl of inhibitor (10^−6 to 10^−9 M) and then after 10 min added 25 μl of substrate [^3H-1β]-1α,25(OH)2D3 (20 nM) for 2 hours at 37° C. in a humidified atmosphere containing 5% CO2. Both inhibitor and substrate were prepared in DMEM with 1% BSA media in the absence and presence of 100 μM DPPD.
4. Lipid Extraction and Counting • Added 500 μL of methanol to stop the reaction. Transferred to tube. Added 250 μl of dichloromethane and vortexed. Added 250 μl of dichloromethane and 250 μl of saturated KCL and vortexed. Centrifuged at 4000 rpm for 5 min. Triplicate 100 μl aliquots of aqueous fraction were mixed with 600 μl of scintillation fluid and the radioactivity was measured using a scintillation counter. All values were normalized for background. (iii) Results.

[3] = system: SCC-25 cells; experiment: [3H]-thymidine proliferation assay with SCC-25 cells; assay type: cell-based; settings: together with calcitriol, three days, [3H]-thymidine 6 h
Protocol: 1. Preparation of Cell Suspension • When SCC-25 cells were 70-80% confluent, aspirated media. Washed the cells with 1×PBS. Trypsinized with trypsin-EDTA from the plate, collected cells from the tissue culture flask, centrifuged (500×g, 5 min) and resuspended in media.
2. Cell Plating. • Counted the cells and adjusted the cell density to 10,000/ml. Added 200 μl per well in a 96 well plate. Incubated plate for 24 h at 37° C. in a humidified atmosphere plus 5% CO2. Aspirated used media and replaced with 150 μl per well with media.
3. Compound Addition. • Added 25 μl of 1α,25(OH)2D3 (final concentration 10^−6M, 10^−7 M, 10^−8 M, M, 10^−10 M, 10^−11 M) into each designated well. Added 25 μl of substrate (final concentration 10^−7 M, 5×10^−8 M, 10^−8 M or 10^−9 M) into each designated well. Incubated plates for 3 days at 37° C. in a humidified atmosphere plus 5% CO2.
4. ^3H-Thymidine Incorporation. • Added ^3H-thymidine at 0.02 μCi per well and incubated at 37° C. in a humidified atmosphere plus 5% CO2 for 6 h.
(§1) 5. Plate Harvesting. • Aspirated all media and washed cells with 1×PBS. Trypsinized cells for 30 min at 37° C. in a humidified atmosphere plus 5% CO2. Harvested cells onto a 96 well filter plate (Millipore) using a Tomtec Cell Harvestor, according to manufacturers instructions.
(§2) 6. Scintillation Counting. • Added 25 μl of scintillation fluid per well. Counted the plate using a scintillation counter.

[4] = target: T2, VDR (Homo sapiens, UniProt P11473); experiment: VDR binding assay; settings: B50: displacement of 50 percent [3H]-1,25(OH)2D3 from human recombinant VDR
T2 construct: purchased Biomol
T2 sequence (P11473 1-427): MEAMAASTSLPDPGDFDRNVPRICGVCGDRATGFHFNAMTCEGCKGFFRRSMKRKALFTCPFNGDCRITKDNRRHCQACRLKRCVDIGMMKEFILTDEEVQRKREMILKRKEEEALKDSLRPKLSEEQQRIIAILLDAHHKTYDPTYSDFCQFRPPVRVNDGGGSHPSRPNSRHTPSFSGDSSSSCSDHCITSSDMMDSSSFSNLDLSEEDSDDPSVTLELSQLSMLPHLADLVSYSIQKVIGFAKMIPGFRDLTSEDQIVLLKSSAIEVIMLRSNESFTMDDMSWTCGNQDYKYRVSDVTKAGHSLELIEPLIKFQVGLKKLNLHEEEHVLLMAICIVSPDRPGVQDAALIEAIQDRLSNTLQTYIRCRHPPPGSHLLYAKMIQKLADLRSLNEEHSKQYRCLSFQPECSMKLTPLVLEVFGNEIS
Protocol: 1. VDR 9.4 pmol/μl (human, recombinant, Biomol).
4. TEK300 • Tris-HCI 50 mM • EDTA 1.5 mM • KCI 300 mM Adjust pH to 7.4 (25° C.)
3. Preparation of 1.25(OH)2D3 and test compounds in ethanol
1 μl stock VDR in 2.5 ml TEDK300/Gelatin solution (500 μl/tube), (keep on ice)
• Label tubes according to the following chart, each in triplicate:
• Mixed all tubes via vortex and incubated at room temperature for 1 hour. Added 10 μL of 3H-1,25(OH)2D3 Working Dilution, mixed by vortex and incubated at room temperature for 1 hour 2. Sample processing • Thirty minutes before addition, put Charcoal/Dextran Solution on ice with continuous mixing. Added […] of Charcoal/Dextran Solution to each tube, mixed well and incubated on ice for 30 minutes. Centrifuged @ 2000 rpm for 10 minutes at 4° C. 3. Counting • Pipetted 100 μL of the upper, aqueous phase to a 24 well scintillation counting plate and added 600 μL scintillation fluid per well, covered and mixed well. Counted the plate using a scintillation counter for 5 min/sample. (iv) Calculations: • The amount of 1,25(OH)2D3 to displace 50 percent [^3H]-1,25(OH)2D3 from VDR was calculated as B50 for 1,25(OH)2D3. The VDR binding of other compounds was calculated as B50 relative to a value of 1 for 1,25(OH)2D3.

[5] = system: normal human epidermal keratinocytes (NHEK); experiment: Human epidermal keratinocyte proliferation assay; assay type: cell-based; settings: together with calcitriol, three days, [3H]-thymidine 18 h
Protocol: 1. HEK Cell Media • Supplemented KGM media with additional reagents provided in the bullet kit as per supplier's instructions. • Added calcium chloride to final concentration of 0.3 mM.
2. Calcitriol Dilutions • Stock: Calcitriol (1 mM)
3. Substrate Dilutions • Stock: substrate (0.1 mM)
1. Cell Culture • Thawed one vial of HEK cells containing at least 500 K, and divided into 5 25 cm^2 flasks with 5 ml HEK cell media. 24 h later, removed media and replenished with 5 ml fresh media. Changed media again 48 h later.
2. Preparation of Cell Suspension • On the day of the assay, washed the monolayer of HEK cells once with 1×PBS buffer (provided in reagent pack) and then trypsinized for 5 min at 37° C. Added trypsin neutralizing solution (provided in reagent pack). Collected cells into tube, centrifuged cells (500×g, 5 min) and resuspended in HEK cell media. Counted cells and adjusted density to 150,000 cells/ml. Diluted cells further 1:30 with HEK cell media.
2. Cell Plating • Added 150 μl of cell suspension to appropriately labelled wells of a 96-well plate. Incubated plate for 48 h at 37° C. in a humidified atmosphere containing 5% CO2 for adherence of cells to wells.
3. […]
4. Cell Harvesting and Counting • Added 0.2 μCi/well of [^3H]-thymidine in 20 μl of HEK cell media to each well. Incubated plates for 18 h at 37° C. in a humidified atmosphere containing 5% CO2. Aspirated media and washed with 1×PBS. Trypsinize-cells for 30 min at 37° C. in a humidified atmosphere containing 5% CO2. Harvested cells onto filter plates using Tomtec cell harvester as per manufacturer's instructions. Added 25 μl scintillation fluid per well. Measured radioactivity using a scintillation counter. All values were normalized for background.

[6] = system: MCF-7 cells; experiment: [3H]-thymidine proliferation assay with MCF-7 cells; assay type: cell-based; settings: together with calcitriol, three days, [3H]-thymidine 6 h
Protocol: 1. Preparation of Cell Suspension • When MCF-7 cells were 70-80% confluent, aspirated growth media. Washed the cells with 1×PBS. Trypsinized with trypsin-EDTA from the plate, collected cells from the tissue culture flask, centrifuged (500×g, 5 min) and resuspended in growth media.
2. Cell Plating. • Counted the cells and adjusted the cell density to 25,000/ml. Added 200 μl per well in a 96 well plate. Incubated plate for 24 h at 37° C. in a humidified atmosphere plus 5% CO2. Aspirated used media and replaced with 150 μl per well with proliferation media.
3. Substrate Addition. • Added 25 μl of 1α,25(OH)2D3 (final concentration 10^−6 M, 10^−7 M, 10^−8 M, 10^−9 M, 10^−10 M, 10^−11 M) into each designated well. Added 25 μl of substrate (final concentration 10^−7 M, 5×10^−8 M, 10^−8 M or 10^−9 M) into each designated well. Incubated plates for 3 days at 37° C. in a humidified atmosphere plus 5% CO2.
4. ^3H-Thymidine incorporation. • Added ^3H-thymidine at 0.02 μCi per well and incubated at 37° C. in a humidified atmosphere plus 5% CO2 for 6 h.
as §1, §2

Compound | selective inhibition of CYP24 [1] | IC50 [2] [nM] | inhibition of proliferation of SCC-25 cells [3] | IC50 [4] [nM] | inhibition of proliferation of normal human epidermal keratinocytes (NHEK) [5] | inhibition of proliferation of MCF-7 cells [6]
C[C@H](CCS(=N)(=O)c1ccccc1)[C@H]1CC[C@H]2/C(=C/C=C3C[C@@H](O)C[C@H](O)C3)CCC[C@]12C (single isomer, unassigned) [I(j), 24 Phenyl Sulfoximine 19-Nor-Vitamin-D3] | selectively inhibit | 27 | act to inhibit the proliferation |  |  | 
CN=S(=O)(CC[C@@H](C)[C@H]1CC[C@H]2/C(=C/C=C3C[C@@H](O)C[C@H](O)C3)CCC[C@]12C)c1ccccc1 (single isomer, unassigned) [I(k), 24-Phenyl N-Methyl Sulfoximine 19-Nor-Vitamin-D3] | selectively inhibit | 300 |  | > 2000 |  | 
CN=S(=O)(CC[C@@H](C)[C@H]1CC[C@H]2/C(=C/C=C3C[C@@H](O)C[C@H](O)C3)CCC[C@]12C)c1ccccc1 (single isomer, unassigned) [I(l), 24-Phenyl N-Methyl Sulfoximine 19-Nor-Vitamin-D3] | selectively inhibit | 42 | act to inhibit the proliferation |  |  | 
C=C1/C(=C\C=C2/CCC[C@]3(C)[C@@H]([C@H](C)CC4(S(=N)(=O)c5ccccc5)CC4)CC[C@@H]23)C[C@@H](O)C[C@@H]1O (single isomer, unassigned) [I(n)] | selectively inhibit | 23 | act to inhibit the proliferation |  | act to inhibit the proliferation | act to inhibit the proliferation
C=C1/C(=C\C=C2/CCC[C@]3(C)[C@@H]([C@H](C)CC4(S(=N)(=O)c5ccccc5)CC4)CC[C@@H]23)C[C@@H](O)C[C@@H]1O (single isomer, unassigned) [I(o)] | selectively inhibit | 20 | act to inhibit the proliferation |  | act to inhibit the proliferation | 
C=C1/C(=C\C=C2/CCC[C@]3(C)[C@@H]([C@H](C)CCS(=N)(=O)c4ccc(F)cc4)CC[C@@H]23)C[C@@H](O)C[C@@H]1O (single isomer, unassigned) [I(p)] | selectively inhibit | 42 |  |  |  | 
C=C1/C(=C\C=C2/CCC[C@]3(C)[C@@H]([C@H](C)CCS(=N)(=O)c4ccc(F)cc4)CC[C@@H]23)C[C@@H](O)C[C@@H]1O (single isomer, unassigned) [I(q)] | selectively inhibit | 78 |  |  |  | 
C=C1/C(=C\C=C2/CCC[C@]3(C)[C@@H]([C@H](C)/C=C/S(=N)(=O)c4ccccc4)CC[C@@H]23)C[C@@H](O)C[C@@H]1O (stereo partly shown) [I(r)] | selectively inhibit |  |  |  |  | 
C=C1/C(=C\C=C2/CCC[C@]3(C)[C@@H]([C@@H](C)/C=C/S(=N)(=O)c4ccccc4)CC[C@@H]23)C[C@@H](O)C[C@@H]1O (stereo partly shown) [I(s)] | selectively inhibit | 580 |  |  |  | 
